“Also recorded” adds a separate entry of the source. Where no end group is shown, it is not given here.
Columns and labels:
[1] = molecular target: T1, MMP-9 (Homo sapiens, UniProt P14780); experiment: Fluoresceinated collagen hydrolysis assay (fluorescein release); format: biochemical; conditions: extended time assay, FIG. 8
T1 construct: Active MMP-9 enzyme was purchased from Calbiochem; purchased Calbiochem
Description: Two enzymatic assays were performed. The first assay measured the enzymatic hydrolysis of fluoresceinated collagen by MMP-9 as a function of time. […] The protein mixture was added to the collagen substrate, and was quickly mixed. Fluorescence emission intensity at 520 nm was measured as a function of time (excitation wavelength 495 nm) in a Shimadzu RF5301 fluorimeter (Lakowicz, 1983). The fluorescein release assay was used to determine the inhibitory constant (Ki) of the peptide inhibitor ([I]) according to Segel (1993) via the use of Dixon plots (1/v vs. [I]), such that: slope=Km /(V max Ki [S]) (1) where Km is the Michaelis constant, Vmax is the reaction maximum velocity, and [S] is the substrate concentration.

[2] = molecular target: pro-MMP-9 (Homo sapiens, UniProt P14780); experiment: Anti-activation (anti-splicing) assay: conversion of pro-MMP-9 by stromilysin, HPLC; format: biochemical; conditions: 0.5 and 1.0 μM peptide, FIG. 12
Description: The assay measured how much proenzyme was converted into mature matrix metalloproteinase. Proenzyme pro-MMP-9 (100 μg) was mixed with 0.5 μg of stromilysin in PBS. The reaction was incubated at 35° C. Aliquots were removed from the reaction over an 80 minute time course. […] The zero (injection) time point was a single peak that elutes from the column in approximately 750 seconds. This peak reduced in size as a function of time, and two new peaks appeared. The first peak eluted at approximately 800 seconds, and represented the mature form of MMP-9. The second peak eluted at approximately 1100 seconds, and corresponded to the N-terminal pro-domain fragment. Peak areas were determined by integrating over the elution profile, and the percent area changes were plotted.
The first peak, eluting at approximately 700 seconds, is pro-MMP-9. As the splicing reaction proceeds, this peak decreases in intensity (as marked with the downwards arrow), and two new peaks appear. The first new peak, eluting at approximately 800 seconds, is mature and active MMP-9. The second new peak, eluting at approximately 1050 seconds, is the prodomain. As the splicing reaction proceeds, the intensity of these two peaks increases (as marked with the upwards arrows). When the reaction is complete, there is no detectable pro-MMP-9 remaining.

[3] = tested on: C57BL6/KsJ db/db mice; experiment: Wound healing in db/db diabetic mice; format: in vivo; conditions: single dose 5 μL of 20 μg/mL at day zero, saline control 14 days
Description: Wounds were created in C57BL6/KsJ db/db mice with a 4 mm biopsy punch. The mice were obtained from The Jackson Laboratories and were aged 3-7 months before the onset of the wounding protocol. All mice were anesthetized prior to wounding. Two wounds were introduced onto the upper back of each animal by pulling the skin away from underlying structures and pushing the punch through the isolated skin. Typically, wounds were created to an average depth of 1.7 mm, with a range of 1.3 to 2.2 mm. No muscle involvement occurred during the course of wounding.
Each day the wounds were digitally photographed and wound areas were determined by computer integration of the photographs. All wound treatments and the subsequent data analyses were performed in a blind manner (see e.g., Brown et al., 1994). Wound area at the time of wounding (day 0) was arbitrarily set to a relative value of 1 for all wounds; such that subsequent wound areas were converted to relative wound areas by dividing the wound area at day n by the wound area at day zero.

[4] = tested on: Human chondrosarcoma cells (SW1351); experiment: Chondrosarcoma cell proliferation (CellTiter 96 Aqueous One, absorbance 490 nm); format: cell-based
Description: Human chondrosarcoma cells (SW1351) were purchased from the American Type Culture Collection (ATCC No. HTB-94). A frozen vial of cells was thawed by gentle agitation in a 37° C. water bath for about 2 minutes. The vial was decontaminated with 70% ethanol and the cells were transferred to a T75 flask containing pre-wanned Leibovitz's L-15 medium (ATCC Catalog No. 30-2008) with 10% fetal bovine serum. The culture as incubated at 37° C. until 80% confluence. The culture medium was removed and the cells were dissociated from the T75 flask using 3 ml 0.25% trypsin, 0.03 mM EDTA at 37° C. After incubation for 5 minutes, 8 ml culture medium was added to stop trypsinization. The cells were counted with trypan blue and then seeded in 96 well plates at a density of about 2500 cells/well.
Six separate cell cultures were tested at each concentration of each peptide (n=6). Control cells received culture medium only.
Cell cultures were then incubated at 37° C. in an atmosphere of 5% CO2. Cell proliferation was determined after 18 or 72 hr by using the CellTiter 96 Aqueous One Solution purchased from Promega (Catalog No. TB245). Briefly, the CellTiter solution was warmed up to room temperature. Twenty microliters of the solution was added to each well. Cells were incubated at 37° C. for 1-2 hours. The absorbance at 490 nm was then recorded using a 96 well plate reader. The data were statistically analyzed using a Student T test. Differences were considered significant at the level of p<0.05.

pro-MMP-9, sequence (P14780 20-707): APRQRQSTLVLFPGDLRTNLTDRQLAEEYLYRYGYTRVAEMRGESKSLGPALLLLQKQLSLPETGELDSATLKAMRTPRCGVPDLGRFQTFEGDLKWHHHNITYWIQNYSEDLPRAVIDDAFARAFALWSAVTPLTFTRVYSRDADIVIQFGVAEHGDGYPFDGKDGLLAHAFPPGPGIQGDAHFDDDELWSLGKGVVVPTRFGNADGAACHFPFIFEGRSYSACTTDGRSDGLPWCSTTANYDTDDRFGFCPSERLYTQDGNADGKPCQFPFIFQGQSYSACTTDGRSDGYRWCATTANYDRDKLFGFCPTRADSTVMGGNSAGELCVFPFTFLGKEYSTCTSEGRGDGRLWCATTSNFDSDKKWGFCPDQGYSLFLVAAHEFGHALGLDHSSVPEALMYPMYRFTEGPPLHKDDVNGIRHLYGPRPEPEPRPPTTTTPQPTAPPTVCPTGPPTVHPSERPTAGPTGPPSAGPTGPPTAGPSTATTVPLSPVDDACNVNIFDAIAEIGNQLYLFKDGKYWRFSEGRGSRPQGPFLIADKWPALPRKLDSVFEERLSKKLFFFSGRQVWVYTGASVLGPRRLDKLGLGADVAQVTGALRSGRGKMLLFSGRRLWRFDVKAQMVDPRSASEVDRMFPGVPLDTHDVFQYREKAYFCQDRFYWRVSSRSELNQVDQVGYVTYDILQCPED
T1 sequence (P14780 107-707 limits assumed): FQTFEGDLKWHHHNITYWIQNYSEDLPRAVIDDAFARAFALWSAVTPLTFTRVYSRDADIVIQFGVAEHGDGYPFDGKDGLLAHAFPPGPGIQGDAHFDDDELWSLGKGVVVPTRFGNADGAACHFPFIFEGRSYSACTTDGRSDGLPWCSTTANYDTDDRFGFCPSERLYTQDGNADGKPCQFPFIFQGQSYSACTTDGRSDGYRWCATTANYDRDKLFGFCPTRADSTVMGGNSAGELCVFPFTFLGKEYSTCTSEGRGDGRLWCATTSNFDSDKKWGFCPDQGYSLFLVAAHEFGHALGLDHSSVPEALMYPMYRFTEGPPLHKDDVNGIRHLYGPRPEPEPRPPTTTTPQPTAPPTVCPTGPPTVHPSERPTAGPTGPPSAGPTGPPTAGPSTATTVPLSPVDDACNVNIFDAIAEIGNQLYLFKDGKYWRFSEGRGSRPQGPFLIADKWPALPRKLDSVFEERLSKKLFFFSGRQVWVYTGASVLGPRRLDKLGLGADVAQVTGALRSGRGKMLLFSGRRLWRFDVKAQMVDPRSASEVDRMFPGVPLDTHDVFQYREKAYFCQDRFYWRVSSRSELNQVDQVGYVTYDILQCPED

Molecule	period of time of effective inhibition of MMP-9 catalyzed hydrolysis of collagen [1] [min]	inhibition of splicing (conversion of pro-MMP-9 into prodomain and active enzyme) [2]	time to full wound closure post wounding [3] [days]	chondrosarcoma cell proliferation vs untreated cells ([4]; 18 hours, 10^−4 M, p<0.05)	chondrosarcoma cell proliferation vs untreated cells ([4]; 72 hours, 10^−4 M, p<0.05)	chondrosarcoma cell proliferation vs untreated cells ([4]; 18 hr, three concentrations tested (10^−6, 10^−5, 10^−4 M))	chondrosarcoma cell proliferation vs untreated cells ([4]; 72 hours, 10^−5 M, p<0.05)
CC(C)[C@H](NC(=O)[C@H](CC(=O)O)NC(=O)[C@@H]1CCCN1C(=O)[C@H](CC(N)=O)NC(=O)CNC(=O)[C@H](CS)NC(=O)[C@H](CCCNC(=N)N)NC(=O)[C@@H]1CCCN1)C(=O)N[C@@H](C)C(=O)N[C@@H](CC(N)=O)C(=O)N[C@@H](Cc1ccc(O)cc1)C(=O)N[C@@H](CC(N)=O)C(=O)N[C@@H](Cc1ccccc1)C(=O)N[C@@H](Cc1ccccc1)C(=O)N1CCC[C@H]1C(=O)N[C@@H](CCCNC(=N)N)C(=O)N[C@@H](CCCCN)C(=O)N1CCC[C@H]1C(=O)N[C@@H](CCCCN)C(=O)O [19-mer]	> 1000	inhibited in a dose dependent manner	9	significantly inhibits or depresses growth; also recorded: significantly inhibited	substantially less		
NYNFFPRKPK [10-mer]					substantially less	did not show any significant effect	
PRCGNPDVA [9-mer]				significantly inhibits or depresses growth; also recorded: significantly inhibited	substantially less		significantly reduced

— US7795225B2, “Anti-chrondrosarcoma compounds” (priority 2003, dated 2010)
